Laboratory results published in PMC6321168, “Comparative Study on Excretive Characterization of Main Components in Herb Pair Notoginseng-Safflower and Single Herbs by LC–MS/MS” (Pharmaceutics, 2018).

Experiment: Urinary excretion study in rats after oral NS, SF or CNS (LC–MS/MS)
Assay type: in vivo
Settings: for concentration at 2 h / concentration at 4 h / concentration at 8 h / concentration at 12 h / concentration at 24 h / concentration at 36 h / concentration at 48 h / concentration at 72 h / concentration at 96 h / concentration at 120 h / concentration at 6 h: male, Sprague Dawley, rat, urine, oral; for Accumulative excretion amount / Accumulative excretion percentage / Excretion amount: rat urine
Method in brief: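 Fasted male rats (n = 6/group) received NS 60 mg/kg, SF 50 mg/kg, or both, by oral gavage. Urine was collected over 0–120 h in metabolic cages and analysed by negative-ESI MRM LC–MS/MS. Cumulative excretion is expressed as a percentage of the ingested dose.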

- concentration at 2 h (60 mg/kg, oral NS 60 mg/kg, 2 h): 17 ± 39 ng/mL
- concentration at 4 h (60 mg/kg, oral NS 60 mg/kg, 4 h): 33 ± 69 ng/mL
- concentration at 8 h (60 mg/kg, oral NS 60 mg/kg, 8 h): 9 ± 12 ng/mL
- concentration at 12 h (60 mg/kg, oral NS 60 mg/kg, 12 h): 28 ± 19 ng/mL
- concentration at 24 h (60 mg/kg, oral NS 60 mg/kg, 24 h): 34 ± 63 ng/mL
- concentration at 36 h (60 mg/kg, oral NS 60 mg/kg, 36 h): 17 ± 33 ng/mL
- concentration at 48 h (60 mg/kg, oral NS 60 mg/kg, 48 h): 12 ± 19 ng/mL
- concentration at 72 h (60 mg/kg, oral NS 60 mg/kg, 72 h): 12 ± 23 ng/mL
- concentration at 96 h (60 mg/kg, oral NS 60 mg/kg, 96 h): 6 ± 10 ng/mL
- concentration at 120 h (60 mg/kg, oral NS 60 mg/kg, 120 h): 3 ± 6 ng/mL
- concentration at 2 h (oral CNS 110 mg/kg, 2 h): 22 ± 42 ng/mL
- concentration at 4 h (oral CNS 110 mg/kg, 4 h): 9 ± 15 ng/mL
- concentration at 6 h (oral CNS 110 mg/kg, 6 h): 17 ± 16 ng/mL
- concentration at 8 h (oral CNS 110 mg/kg, 8 h): 38 ± 75 ng/mL
- concentration at 12 h (oral CNS 110 mg/kg, 12 h): 53 ± 110 ng/mL
- concentration at 24 h (oral CNS 110 mg/kg, 24 h): 315 ± 787 ng/mL
- concentration at 36 h (oral CNS 110 mg/kg, 36 h): 41 ± 68 ng/mL
- concentration at 48 h (oral CNS 110 mg/kg, 48 h): 30 ± 70 ng/mL
- concentration at 72 h (oral CNS 110 mg/kg, 72 h): 16 ± 35 ng/mL
- concentration at 96 h (oral CNS 110 mg/kg, 96 h): 16 ± 36 ng/mL
- concentration at 120 h (oral CNS 110 mg/kg, 120 h): 10 ± 17 ng/mL
- concentration at 6 h (oral NS 60 mg/kg, 6 h): 10 ± 18 ng/mL
- Accumulative excretion amount (oral CNS 110 mg/kg, 2 h): 0.005 ± 0.005 µg
- Accumulative excretion percentage (oral CNS 110 mg/kg, 2 h): 0.001±0.001%
- Excretion amount (oral CNS 110 mg/kg, 2 h): 0.005 ± 0.005 µg
- Accumulative excretion amount (oral CNS 110 mg/kg, 4 h): 0.009 ± 0.008 µg
- Accumulative excretion percentage (oral CNS 110 mg/kg, 4 h): 0.001±0.001%
- Excretion amount (oral CNS 110 mg/kg, 4 h): 0.005 ± 0.007 µg
- Accumulative excretion amount (oral CNS 110 mg/kg, 6 h): 0.024 ± 0.023 µg
- Accumulative excretion percentage (oral CNS 110 mg/kg, 6 h): 0.003±0.003%
- Excretion amount (oral CNS 110 mg/kg, 6 h): 0.018 ± 0.018 µg
- Accumulative excretion amount (oral CNS 110 mg/kg, 8 h): 0.029 ± 0.024 µg
- Accumulative excretion percentage (oral CNS 110 mg/kg, 8 h): 0.004±0.003%
- Excretion amount (oral CNS 110 mg/kg, 8 h): 0.010 ± 0.009 µg
- Accumulative excretion amount (oral CNS 110 mg/kg, 12 h): 0.045 ± 0.040 µg
- Accumulative excretion percentage (oral CNS 110 mg/kg, 12 h): 0.006±0.005%
- Excretion amount (oral CNS 110 mg/kg, 12 h): 0.019 ± 0.016 µg
- Accumulative excretion amount (oral CNS 110 mg/kg, 24 h): 0.103 ± 0.083 µg
- Accumulative excretion percentage (oral CNS 110 mg/kg, 24 h): 0.014±0.011%
- Excretion amount (oral CNS 110 mg/kg, 24 h): 0.058 ± 0.066 µg
- Accumulative excretion amount (oral CNS 110 mg/kg, 36 h): 0.114 ± 0.086 µg
- Accumulative excretion percentage (oral CNS 110 mg/kg, 36 h): 0.015±0.011%
- Excretion amount (oral CNS 110 mg/kg, 36 h): 0.011 ± 0.009 µg
- Accumulative excretion amount (oral CNS 110 mg/kg, 48 h): 0.135 ± 0.096 µg
- Accumulative excretion percentage (oral CNS 110 mg/kg, 48 h): 0.018±0.013%
- Excretion amount (oral CNS 110 mg/kg, 48 h): 0.021 ± 0.024 µg
- Accumulative excretion amount (oral CNS 110 mg/kg, 72 h): 0.139 ± 0.098 µg
- Accumulative excretion percentage (oral CNS 110 mg/kg, 72 h): 0.018±0.013%
- Excretion amount (oral CNS 110 mg/kg, 72 h): 0.004 ± 0.004 µg
- Accumulative excretion amount (oral CNS 110 mg/kg, 96 h): 0.144 ± 0.100 µg
- Accumulative excretion percentage (oral CNS 110 mg/kg, 96 h): 0.019±0.013%
- Excretion amount (oral CNS 110 mg/kg, 96 h): 0.005 ± 0.005 µg
- Accumulative excretion amount (oral CNS 110 mg/kg, 120 h): 0.148 ± 0.101 µg
- Accumulative excretion percentage (oral CNS 110 mg/kg, 120 h): 0.019±0.013%
- Excretion amount (oral CNS 110 mg/kg, 120 h): 0.004 ± 0.004 µg
- Accumulative excretion amount (oral NS 60 mg/kg, 2 h): 0.022 ± 0.025 µg
- Accumulative excretion percentage (oral NS 60 mg/kg, 2 h): 0.002±0.003%
- Excretion amount (oral NS 60 mg/kg, 2 h): 0.022 ± 0.025 µg
- Accumulative excretion amount (oral NS 60 mg/kg, 4 h): 0.027 ± 0.029 µg
- Accumulative excretion percentage (oral NS 60 mg/kg, 4 h): 0.003±0.003%
- Excretion amount (oral NS 60 mg/kg, 4 h): 0.008 ± 0.003 µg
- Accumulative excretion amount (oral NS 60 mg/kg, 6 h): 0.048 ± 0.039 µg
- Accumulative excretion percentage (oral NS 60 mg/kg, 6 h): 0.006±0.004%
- Excretion amount (oral NS 60 mg/kg, 6 h): 0.021 ± 0.020 µg
- Accumulative excretion amount (oral NS 60 mg/kg, 8 h): 0.097 ± 0.129 µg
- Accumulative excretion percentage (oral NS 60 mg/kg, 8 h): 0.011±0.015%
- Excretion amount (oral NS 60 mg/kg, 8 h): 0.082 ± 0.123 µg
- Accumulative excretion amount (oral NS 60 mg/kg, 12 h): 0.173 ± 0.206 µg
- Accumulative excretion percentage (oral NS 60 mg/kg, 12 h): 0.020±0.024%
- Excretion amount (oral NS 60 mg/kg, 12 h): 0.076 ± 0.083 µg
- Accumulative excretion amount (oral NS 60 mg/kg, 24 h): 0.279 ± 0.198 µg
- Accumulative excretion percentage (oral NS 60 mg/kg, 24 h): 0.032±0.023%
- Excretion amount (oral NS 60 mg/kg, 24 h): 0.106 ± 0.109 µg
- Accumulative excretion amount (oral NS 60 mg/kg, 36 h): 0.311 ± 0.182 µg
- Accumulative excretion percentage (oral NS 60 mg/kg, 36 h): 0.036±0.021%
- Excretion amount (oral NS 60 mg/kg, 36 h): 0.041 ± 0.012 µg
- Accumulative excretion amount (oral NS 60 mg/kg, 48 h): 0.359 ± 0.187 µg
- Accumulative excretion percentage (oral NS 60 mg/kg, 48 h): 0.041±0.021%
- Excretion amount (oral NS 60 mg/kg, 48 h): 0.048 ± 0.045 µg
- Accumulative excretion amount (oral NS 60 mg/kg, 72 h): 0.372 ± 0.200 µg
- Accumulative excretion percentage (oral NS 60 mg/kg, 72 h): 0.043±0.023%
- Excretion amount (oral NS 60 mg/kg, 72 h): 0.013 ± 0.018 µg
- Accumulative excretion amount (oral NS 60 mg/kg, 96 h): 0.379 ± 0.211 µg
- Accumulative excretion percentage (oral NS 60 mg/kg, 96 h): 0.044±0.024%
- Excretion amount (oral NS 60 mg/kg, 96 h): 0.008 ± 0.013 µg
- Accumulative excretion amount (oral NS 60 mg/kg, 120 h): 0.386 ± 0.221 µg
- Accumulative excretion percentage (oral NS 60 mg/kg, 120 h): 0.044±0.025%
- Excretion amount (oral NS 60 mg/kg, 120 h): 0.007 ± 0.012 µg
SMILES: CC(C)=CCC[C@](C)(O[C@@H]1O[C@H](CO)[C@@H](O)[C@H](O)[C@H]1O)[C@H]1CC[C@]2(C)[C@@H]1[C@H](O)C[C@@H]1[C@@]3(C)CC[C@H](O[C@@H]4O[C@H](CO)[C@@H](O)[C@H](O)[C@H]4O[C@@H]4O[C@H](CO)[C@@H](O)[C@H](O)[C@H]4O)C(C)(C)[C@@H]3CC[C@]12C [ginsenoside Rd]
